Test results from patent US8889591B2, “Herbicidal compositions comprising 4-amino-3-chloro-5-fluoro-6-(4-chloro-2-fluoro-3-methoxyphenyl)pyridine-2-carboxylic acid or a derivative thereof and bromobutide, daimuron, oxaziclomefone or pyributicarb” (Dow Agrosciences LLC, priority 2012, dated 2014).

Experiments:
[1] = tested on: ECHCO; assay: Postemergence foliar-applied greenhouse weed control, direct-seeded rice system; format: in vivo, Echinochloa colona (L.) Link
Excerpt: (§1) Seeds or nutlets of the desired test plant species were planted in a soil matrix prepared by mixing a loam or sandy loam soil (e.g., 28.6 percent silt, 18.8 percent clay, and 52.6 percent sand, with a pH of about 5.8 and an organic matter content of about 1.8 percent) and calcareous grit in an 80 to 20 ratio. The soil matrix was contained in plastic pots with a volume of 1 quart and a surface area of 83.6 square centimeters (cm^2). When required to ensure good germination and healthy plants, a fungicide treatment and/or other chemical or physical treatment was applied. The plants were grown for 8-22 days in a greenhouse with an approximate 14 h photoperiod which was maintained at about 29° C. during the day and 26° C. during the night. Nutrients (Peters Excel® 15-5-15 5-Ca 2-Mg and iron chelate) were applied in the irrigation solution as needed and water was added on a regular basis. Supplemental lighting was provided with overhead metal halide 1000-Watt lamps as necessary. The plants were employed for testing when they reached the first through fourth true leaf stage.
(§2) Treatments consisted of the acid or esters of 4-amino-3-chloro-5-fluoro-6-(4-chloro-2-fluoro-3-methoxy-phenyl)pyridine-2-carboxylic acid (Compound A), each formulated as an SC (suspension concentrate), and various herbicidal components alone and in combination. Forms of compound A were applied on an acid equivalent basis.
(§3) Other herbicidal components were applied on an active ingredient basis and included diamuron formulated as an EC (emulsifiable concentrate) and oxaziclomefone (technical grade material).
(§4) Treatment requirements were calculated based upon the rates being tested, the concentration of active ingredient or acid equivalent in the formulation, and a 12 mL application volume at a rate of 187 L/ha.
(§5) For treatments comprised of formulated compounds, measured amounts of compounds were placed individually in 25 mL glass vials and diluted in a volume of 1.25% (v/v) Agri-Dex® crop oil concentrated to obtain 12× stock solutions. […] Application solutions were prepared by adding an appropriate amount of each stock solution (e.g., 1 mL) and diluted to the appropriate final concentrations with the addition of 10 mL of an aqueous mixture of 1.25% (v/v) crop oil concentrate so that the final spray solutions contained 1.25+/−0.05% (v/v) crop oil concentrate.
(§6) For treatments comprised of technical compounds, weighed amounts can be placed individually in 25 mL glass vials and dissolved in a volume of 97:3 v/v acetone/DMSO to obtain 12× stock solutions. […] Application solutions can be prepared by adding an appropriate amount of each stock solution (e.g., 1 mL) and diluted to the appropriate final concentrations with the addition of 10 mL of an aqueous mixture of 1.5% (v/v) crop oil concentrate so that the final spray solutions contain 1.25% (v/v) crop oil concentrate. When technical materials are used, the concentrated stock solutions can be added to the spray solutions so that the final acetone and DMSO concentrations of the application solutions are 16.2% and 0.5%, respectively.
(§7) For treatments comprised of formulated and technical compounds, weighed amounts of the technical materials were placed individually in 25 mL glass vials and dissolved in a volume of 97:3 v/v acetone/DMSO to obtain 12× stock solutions, and measured amounts of the formulated compounds were placed individually in 25 mL glass vials and diluted in a volume of 1.5% (v/v) crop oil concentrate or water to obtain 12× stock solutions. […] Application solutions were prepared by adding an appropriate amount of each stock solution (e.g., 1 mL) and diluted to the appropriate final concentrations with the addition of an appropriate amount of an aqueous mixture of 1.5% (v/v) crop oil concentrate so that the final spray solutions contained 1.25% (v/v) crop oil concentrate. […]

[2] = tested on: BRAPP; assay: as above; format: in vivo
Excerpt: as §1, §2, §3, §4, §5, §6, §7

[3] = tested on: LEFCH; assay: as above; format: in vivo, Leptochloa chinensis (L.) Nees
Excerpt: as §1, §2, §3, §4, §5, §6, §7

[4] = tested on: ECHOR; assay: In-water applied greenhouse weed control, transplanted paddy rice system; format: in vivo, Echinochloa oryzoides (Ard.) Fritsch; settings: in-water application
Description: (§8) Weed seeds or nutlets of the desired test plant species were planted in puddled soil (mud) prepared by mixing a shredded, non-sterilized mineral soil (50.5 percent silt, 25.5 percent clay, and 24 percent sand, with a pH of about 7.6 and an organic matter content of about 2.9 percent) and water at a 1:1 volumetric ratio. The prepared mud was dispensed in 365 mL aliquots into 16-ounce (oz.) non-perforated plastic pots with a surface area of 86.59 square centimeters (cm^2) leaving a headspace of 3 centimeters (cm) in each pot. Mud was allowed to dry overnight prior to planting or transplanting. Rice seeds were planted in Sun Gro MetroMix® 306 planting mixture, which typically has a pH of 6.0 to 6.8 and an organic matter content of about 30 percent, in plastic plug trays. Seedlings at the second or third leaf stage of growth were transplanted into 840 mL of mud contained in 32-oz. non-perforated plastic pots with a surface area of 86.59 cm^2 4 days prior to herbicide application. The paddy was created by filling the headspace of the pots with 2.5 to 3 cm of water. When required to ensure good germination and healthy plants, a fungicide treatment and/or other chemical or physical treatment was applied. The plants were grown for 4-22 days in a greenhouse with an approximate 14 h photoperiod which was maintained at about 29° C. during the day and 26° C. during the night. Nutrients were added as Osmocote® (19:6:12, N:P:K+ minor nutrients) at 2 g per 16-oz. pot and 4 g per 32-oz. pot. Water was added on a regular basis to maintain the paddy flood, and supplemental lighting was provided with overhead metal halide 1000-Watt lamps as necessary. The plants were employed for testing when they reached the first through fourth true leaf stage.
(§9) Treatments consisted of the acid or esters of 4-amino-3-chloro-5-fluoro-6-(4-chloro-2-fluoro-3-methoxy-phenyl)pyridine-2-carboxylic acid (compound A) each formulated as an SC and various herbicidal components alone and in combination. Forms of compound A were applied on an acid equivalent basis.
(§10) Other herbicidal components were applied on an active ingredient basis and included daimuron formulated as an EC, bromobutide (technical grade material), and oxaziclomefone (technical grade material).
(§11) Treatment requirements for each compound or herbicidal component were calculated based upon the rates being tested, the concentration of active ingredient or acid equivalent in the formulation, an application volume of 2 mL per component per pot, and an application area of 86.59 cm^2 per pot.
(§12) For formulated compounds, a measured amount was placed in an individual 100 or 200 mL glass vial and was dissolved in a volume of 1.25% (v/v) Agri-Dex® crop oil concentrate to obtain application solutions.
(§13) For technical grade compounds, a weighed amount was placed in an individual 100 to 200 mL glass vial and was dissolved in a volume of acetone to obtain concentrated stock solutions. […] The concentrated stock solutions obtained were diluted with an equivalent volume of an aqueous mixture containing 2.5% (v/v) crop oil concentrate so that the final application solutions contained 1.25% (v/v) crop oil concentrate.
(§14) Applications were made by injecting, with a pipetter, appropriate amounts of the application solutions, individually and sequentially, into the aqueous layer of the paddy. Control plants were treated in the same manner with the solvent blank. Applications were made so that all treated plant material received the same concentrations of acetone and crop oil concentrate.
(§15) The treated plants and control plants were placed in a greenhouse as described above and water was added as needed to maintain a paddy flood. After approximately 3 weeks the condition of the test plants as compared with that of the untreated plants was determined visually and scored on a scale of 0 to 100 percent where 0 corresponds to no injury or growth inhibition and 100 corresponds to complete kill. […]

[5] = tested on: ECHCG; assay: Postemergence foliar-applied greenhouse weed control, direct-seeded rice system; format: in vivo, Echinochloa crusgalli (L.) Beauv.
Excerpt: as §1, §2, §3, §4, §5, §6, §7

[6] = tested on: FIMMI; assay: In-water applied greenhouse weed control, transplanted paddy rice system; format: in vivo, Fimbristylis miliacea (L.) Vahl; settings: in-water application
Description: as §8, §9, §10, §11, §12, §13, §14, §15

[7] = tested on: IPOHE; assay: Postemergence foliar-applied greenhouse weed control, direct-seeded rice system; format: in vivo, Ipomoea hederacea Jacq.
Excerpt: as §1, §2, §3, §4, §5, §6, §7

[8] = tested on: CYPRO; assay: In-water applied greenhouse weed control, transplanted paddy rice system; format: in vivo, Cyperus rotundus L.; settings: in-water application
Description: as §8, §9, §10, §11, §12, §13, §14, §15

[9] = Daimuron 100 gai/ha alone (Table 2)
[10] = Daimuron 200 gai/ha alone (Table 2)
[11] = Daimuron 400 gai/ha alone (Table 2)

With `Cc1ccc(NC(=O)NC(C)(C)c2ccccc2)cc1` [Daimuron, N-(4-methylphenyl)-N′-(1-methyl-1-phenylethyl)urea] the “Visual Weed Control (%) - 20 DAA ECHCO Obs” value ([1]; Daimuron 100 gai/ha alone) was 0%, the “Visual Weed Control (%) - 20 DAA ECHCO Obs” value [1, 9] was 0% and the “Visual Weed Control (%) - 20 DAA ECHCO Obs” value ([1]; Daimuron 200 gai/ha alone) was 10%. The “Visual Weed Control (%) - 20 DAA ECHCO Obs” value [1, 10] was 10%, the “Visual Weed Control (%) - 20 DAA ECHCO Obs” value ([1]; Daimuron 400 gai/ha alone) was 10% and the “Visual Weed Control (%) - 20 DAA ECHCO Obs” value [1, 11] was 10%. For the same compound, the “Visual Weed Control (%) - 20 DAA BRAPP Obs” value ([2]; Daimuron 100 gai/ha alone) was 0%, the “Visual Weed Control (%) - 20 DAA BRAPP Obs” value [2, 9] was 0% and the “Visual Weed Control (%) - 20 DAA BRAPP Obs” value ([2]; Daimuron 200 gai/ha alone) was 0%. The “Visual Weed Control (%) - 20 DAA BRAPP Obs” value [2, 10] was 0%, the “Visual Weed Control (%) - 20 DAA BRAPP Obs” value ([2]; Daimuron 400 gai/ha alone) was 0% and the “Visual Weed Control (%) - 20 DAA BRAPP Obs” value [2, 11] was 0%. The “Visual Weed Control (%) - 20 DAA LEFCH Obs” value ([3]; Daimuron 100 gai/ha alone) was 0%, the “Visual Weed Control (%) - 20 DAA LEFCH Obs” value ([3]; Daimuron 200 gai/ha alone) was 0% and the “Visual Weed Control (%) - 20 DAA LEFCH Obs” value [3, 10] was 0%. The “Visual Weed Control (%) - 20 DAA LEFCH Obs” value ([3]; Daimuron 400 gai/ha alone) was 0%, the “Visual Weed Control (%) - 20 DAA LEFCH Obs” value [3, 11] was 0% and the “Visual Weed Control (%) - 21 DAA ECHOR Obs” value ([4]; Daimuron 200 gai/ha alone) was 0%. The “Visual Weed Control (%) - 21 DAA ECHOR Obs” value ([4]; Daimuron 400 gai/ha alone) was 15%, the “Visual Weed Control (%) - 20 DAA ECHOR Obs” value ([4]; Diamuron 400 gai/ha alone) was 60% and the “Visual Weed Control (%) - 20 DAA ECHCG Obs” value ([5]; Daimuron 100 gai/ha alone) was 0%. For the same compound, the “Visual Weed Control (%) - 20 DAA ECHCG Obs” value [5, 9] was 0%, the “Visual Weed Control (%) - 20 DAA ECHCG Obs” value ([5]; Daimuron 200 gai/ha alone) was 0% and the “Visual Weed Control (%) - 20 DAA ECHCG Obs” value [5, 10] was 0%. For the same compound, the “Visual Weed Control (%) - 20 DAA ECHCG Obs” value ([5]; Daimuron 400 gai/ha alone) was 0%, the “Visual Weed Control (%) - 20 DAA ECHCG Obs” value [5, 11] was 0% and the “Visual Weed Control (%) - 21 DAA FIMMI Obs” value ([6]; Daimuron 200 gai/ha alone) was 10%. For the same compound, the “Visual Weed Control (%) - 21 DAA FIMMI Obs” value ([6]; Daimuron 400 gai/ha alone) was 80%, the “Visual Weed Control (%) - 20 DAA IPOHE Obs” value ([7]; Daimuron 100 gai/ha alone) was 0% and the “Visual Weed Control (%) - 20 DAA IPOHE Obs” value [7, 9] was 0%. For the same compound, the “Visual Weed Control (%) - 20 DAA IPOHE Obs” value ([7]; Daimuron 200 gai/ha alone) was 10%.

For `CC(C)(NC(=O)C(Br)C(C)(C)C)c1ccccc1` (centres unmarked) [Bromobutide, 2-bromo-3,3-dimethyl-N-(1-methyl-1-phenylethyl)butanamide], the “Visual Weed Control (%) - 19 DAA CYPRO Obs” value ([8]; Bromobutide 225 gai/ha alone) was 0%, the “Visual Weed Control (%) - 19 DAA CYPRO Obs” value ([8]; Bromobutide 450 gai/ha alone) was 0% and the “Visual Weed Control (%) - 19 DAA FIMMI Obs” value ([6]; Bromobutide 225 gai/ha alone) was 0%. For the same compound, the “Visual Weed Control (%) - 19 DAA FIMMI Obs” value ([6]; Bromobutide 450 gai/ha alone) was 15%.
